Entries after “also recorded” stand apart in the source; their conditions may differ. Ends that are not written are not given here.
Key:
[1] = tested on: ZP proteins on intact canine oocytes; test: Phage display selection of ZP-binding peptides on intact canine oocytes; details: four rounds of selection, 1000 intact canine oocytes per round, 7-mer and 12-mer phage display libraries
Experimental: The phage display procedure developed herein utilizes intact oocytes surrounded by ZP proteins. In this procedure, ZP proteins remain on oocytes in their native conformation, unlike previously published selection protocols that use denatured ZPs immobilized on an artificial solid support. The procedure involves incubating isolated oocytes with a phage display library followed by washing of unbound phage. Oocytes are lysed, and bound phage are amplified in bacterial cultures. Enrichment in ZP-binding phage clones is achieved in four subsequent selection rounds, after which selected phage DNAs are sequenced and translated to obtain peptide sequences.
Collection of dog ova: Oocytes were isolated from dog ovaries obtained from spay/neuter clinics. All ovaries were collected from bitches (six months of age and older) undergoing elective ovariohysterectomy. Approximately 20-30 oocytes from each pair of ovaries were isolated. Ova were washed extensively, retrieved by visual inspection at 12× magnification, washed two additional times, pooled and frozen before the use. Oocytes isolated from dog ovaries were characterized by microscopic evaluations.
Identification of peptides that bind to ZP proteins on intact canine oocytes: Peptides that specifically bind to ZP proteins were identified by utilizing two phage display libraries purchased from New England BioLabs, including: PhD-C7C Peptide 7-mer Library Kit and PhD-12 Peptide Library Kit. The utilized approach selects peptides that mimic the sperm antigen at the level of the ZP-sperm binding (FIG. 2).
Four rounds of selection were performed using each library. For each selection round, an aliquot of the primary library was diluted in a blocking buffer and incubated with 1000 intact canine oocytes surrounded by ZP. After incubation, phages expressing peptides not bound to oocytes were washed away and the bound phages were recovered by lysis. […] Peptide sequences from phage display selection on intact dog oocytes surrounded by ZP included: LNSFLRS (SEQ ID NO:1), LSTALRS (SEQ ID NO:2), SSWYRGA (SEQ ID NO:3), TGTSTRA (SEQ ID NO:4), YLPIYTIPSMVY (SEQ ID NO:5), NNQSPILKLSIH (SEQ ID NO:6), and AHPNTAPIHPKF (SEQ ID NO:7). Based on the peptide sequences, the following five antigens were prepared: antigen 1—YLPVGGLRRIGG (SEQ ID NO:14), antigen 2—CLNSFLRSC-KGG (SEQ ID NO:9), antigen 3—YLPIYTIPSMVY-GG (SEQ ID NO:12), antigen 4—NNQSPILKLSIH-GG (SEQ ID NO:13), and antigen 5—CSSWYRGAC-KGGY (SEQ ID NO:11).

canine sperm cells = test: Sperm cell ELISA of serum from dogs immunized with antigen 4; assay type: in vivo; details: three dogs immunized with antigen 4; sperm cell ELISA at serum dilution 1:50 (FIG. 5)
dogs = test: Peptide ELISA of serum from immunized dogs for anti-peptide antibodies; assay type: in vivo, dog
Experimental: Immunization of dogs with ZP-binding peptides conjugated to a carrier protein: The peptides were synthesized by Global Peptide Services (Fort Collins, Colo.) at a yield of 10-20 mg having 95% purity. Two of the selected peptides were 7 amino acids long and the other two were 12 amino acids long. Antigen was taken from the literature (6) to serve as a control. To assure maximum immunogenicity, the peptides were conjugated to keyhole-limpet hemocyanin (KLH), a carrier protein. For vaccinations, the antigen was formulated to include: 250 μg of KLH conjugated peptide mixed with aluminum hydroxide adjuvant (Alhydrogel 85) and 100 μg canine specific immunostimulatory oligodeoxynucleotide (CpG). Four of the selected peptides and one control peptide were injected intramusculary into each dog (one dog/peptide). Booster immunizations were given twice to achieve high titer antisera. Each immunized dog served as his/her own control since none were expected to have preexisting antibodies to the selected peptides.
Evaluation of serum collected from immunized dogs for anti-ZP-binding peptide antibodies: Serum samples were collected from all dogs prior to immunization and biweekly or monthly thereafter during a 12-month period. The samples were tested for the presence of anti-peptide antibodies in a peptide ELISA format. […] The immunization scheme was as described above.

| Substance | binding to ZP (peptide sequences of phage selected on intact dog oocytes) [1] | also measured |
| --- | --- | --- |
| AHPNTAPIHPKF (Phage library random peptide insert) [SEQ ID NO:7] | responsible for binding to ZP |  |
| YLPIYTIPSMVY (Phage library random peptide insert) [SEQ ID NO:5] | responsible for binding to ZP |  |
| LSTALRS (Phage library random peptide insert) [SEQ ID NO:2] | responsible for binding to ZP |  |
| SSWYRGA (Phage library random peptide insert) [SEQ ID NO:3] | responsible for binding to ZP |  |
| LNSFLRS (Phage library random peptide insert) [SEQ ID NO:1] | responsible for binding to ZP |  |
| TGTSTRA (Phage library random peptide insert) [SEQ ID NO:4] | responsible for binding to ZP |  |
| NNQSPILKLSIH-GG (NNQSPILKLSIHGG; also: conjugated to carrier protein) [antigen 4] |  | binding of raised antibodies to canine sperm cells (anti-sperm antibody levels) (canine sperm cells): bind to canine sperm cells; immunogenicity: anti-peptide antibody levels in serum (dogs; one dog per antigen, 250 μg KLH conjugated peptide with aluminum hydroxide adjuvant and CpG, intramuscular, two boosts, peptide ELISA at serum dilution 1:6400 (FIG. 3)): specific anti-peptide antibodies at high levels; also recorded: high immunogenic properties; titers of anti-peptide antibodies (dogs; three additional dogs, same immunization scheme, peptide ELISA at serum dilution 1:6400 (FIG. 4)): high titers of anti-peptide antibodies |
| NNQSPILKLSIH (Phage library random peptide insert) [SEQ ID NO:6] | responsible for binding to ZP |  |

— patent publication US8057992B2, “Methods for identifying peptides that bind to intact oocytes” (Auburn University, priority 2007, dated 2011)
